{"source": "patent US9896512B2", "about": "“Antitumor peptide derived from a complementarity determining region of a humanized monoclonal antibody to NAP12B transporter” (Recepta Biopharma S.A., priority 2010, dated 2018)", "key": {"[1]": {"test_system": "B16F10-Nex2 melanoma cells", "assay": "Cell migration, wound healing assay", "type": "cell-based, murine", "conditions": "peptide 500 μM, 24 hours after wounding", "method": "For the migration studies, 5×10^5 or 10^6 cells were distributed on 6-well plates and let them to adhere for 2 hours at 37° C./5% CO2. The culture medium was changed and the peptide was added at 500 μM overnight. The cell monolayer was “wounded” with a P1000 tip and incubated for 24 hours. Images of untreated cells (control) and peptide treated cells were captured with a JENOPTIK camera. Cell numbers (nuclei) were determined using the Pixcavator software version 5.0.\nViable B16F10-Nex2 cells (5×105)/well were distributed on a 6-well culture plate and incubated overnight at 37° C. in a humidified chamber with 5% CO2. A P1000 tip was used for wounding the cell monolayer and the image was immediately captured (0 hour) using a camera (Jenoptik) with the software Progres 2.8. After 24 hours a new image of the same field was obtained and recorded (24 hours).\nViable B16F10-Nex2 cells (3×10^5)/well were distributed in a 12-well culture plate and incubated for 4 hours at 37° C. in a humidified chamber with 5% CO2. Fresh medium containing RB10 (SEQ ID NO: 9) at different concentrations was added to the wells and incubated again for 4 hours. The monolayer wounding was performed as described above in Example 12, and images obtained accordingly. After 24 hours a new image in the same field was obtained and recorded (24 hours). […] Magnification ×100."}, "[2]": {"test_system": "tumor cells", "assay": "Antitumor activity of RebMab 200 CDR peptides", "type": "cell-based", "source_text": "(§1) Details of the in vitro tumor cell growth, cytotoxicity tests, determination of viable cells and in vivo protection experiments with B16F10 cells in a mouse metastatic model are described in Polonelli et al. (PLoS One. 3(6):e2371, 2008) and Dobroff et al. (Translat. Onc., 3: 204-217, 2010).\nAmidated RebMab 200 CDR H2 (SEQ ID NO: 7) shares up to sixteen (16) identical amino acids with similar H2 fragments from several murine antibodies of various specificities."}, "[3]": {"test_system": "B16F10-Nex2 melanoma cells", "assay": "In vivo protection against lung colonization (metastatic melanoma model)", "set-up": "species or system C57B1/6 mice", "conditions": "250 μg i.p. on days 1, 3, 5, 7, 9, 11; lungs after 22 days", "method": "as §1\nPeptides RB9 and RB10 along with the apoptotic peptide A4H3, a true microantibody of cytotoxic anti-melanoma mAb (A4) (Dobroff et al., Translat. Onc., 3: 204-217, 2010), were tested for their protective effects against lung colonization by B16F10-Nex2 melanoma cells (2×105) injected intravenously in C57B1/6 mice (6 animals/group). Peptides were intraperitoneally administered (250 μg i.p.) on days 1, 3, 5, 7, 9, 11 after tumor cell challenge. Lungs of peptide-treated animals are shown in FIG. 5 after 22 days of tumor challenge. As noticed, peptide treatment was interrupted 10 days before animal sacrifice.\nIn vivo protection by peptides RB9 and RB10 (and A4H3 control) against lung colonization by B16F10-Nex2 melanoma cells (2×105) injected intravenously in C57B1/6 mice (6 animals/group) is shown in FIG. 6. The other 5 CDRs of RebMab200 (SEQ ID NOs: 7, 10, 11, 12, 13) were unprotective in vivo. Peptides were administered in the same way as described above, and the number of lung nodules was determined."}, "[4]": {"test_system": "melanoma B16F10-Nex2 cells", "assay": "Alanine scanning series cell adhesion assay (MTT after trypsin-EDTA)", "type": "cell-based, murine", "conditions": "1 mM peptide, 24 hours", "method": "The peptide RB10 (SEQ ID NO: 9) was engineered to replace each amino acid by alanine using Ala-scan methodology, and thus help evaluate the role of each amino acid on biological effect, specifically on the hyper-adherence observed with 1 mM peptide.\nFor this purpose, viable melanoma B16F10-Nex2 cells (1×10^4)/well were distributed on a 96-well culture plate and incubated for 4 hours. Fresh media containing 1 mM of the alanine-scanning series for RB10 was added and incubated for 24 hours. Treated cells were detached with 30 μl/well of trypsin-EDTA for five minutes at 37° C. and gently washed with PBS. Cells were incubated for 4 hours with 0.5 mg/mL of MTT [3-(4,5-Dimethylthiazol-2-yl)-2,5-diphenyltetrazolium bromide] in fresh media and the formazan crystals were solubilized adding 1 volume of a 10% SDS solution overnight. Intensity was measured using a plate reader at 570 nm. […] The 100% value for each peptide represented the treated cells that had not been trypsinized."}}, "note": "Positions of bridges follow the written chain, without caps; N, C: chain ends. Non-standard residues stand in square brackets, D forms with d. No end group written: not given here. dCit = NC(=O)NCCC[C@@H](N)C(=O)O", "data": [{"substance": "CGTFEYRAQAGWAGRTA-NH2 [RB10 Scramble]", "values": [{"measurement": "inhibition of cell migration (words)", "setting": "[1]", "value": "partial inhibition"}]}, {"substance": "CGTFEYRAQAGWAGRTAC-NH2 (disulfide 1-18; N-terminus assumed; SMILES C[C@@H]1NC(=O)[C@H](Cc2c[nH]c3ccccc23)NC(=O)CNC(=O)[C@H](C)NC(=O)[C@H](CCC(N)=O)NC(=O)[C@H](C)NC(=O)[C@H](CCCNC(=N)N)NC(=O)[C@H](Cc2ccc(O)cc2)NC(=O)[C@H](CCC(=O)O)NC(=O)[C@H](Cc2ccccc2)NC(=O)[C@H]([C@@H](C)O)NC(=O)CNC(=O)[C@@H](N)CSSC[C@@H](C(N)=O)NC(=O)[C@H](C)NC(=O)[C@H]([C@@H](C)O)NC(=O)[C@H](CCCNC(=N)N)NC(=O)CNC1=O) [RB9 Scramble]", "values": [{"measurement": "inhibition of cell migration (words)", "setting": "[1]", "value": "partial inhibition"}]}, {"substance": "GYTFTGYNIH-NH2 [RB11]", "values": [{"measurement": "antitumor activity", "setting": "[2]", "value": "no antitumor activity"}, {"measurement": "protection against lung colonization (lung nodules)", "setting": "[3]", "value": "unprotective"}]}, {"substance": "C(dA)RGETA(dCit)ATFAYWGQ(dA)C-NH2 (C[dA]RGETA[dCit]ATFAYWGQ[dA]C-NH2; disulfide 1-18; N-terminus assumed; SMILES C[C@@H]1NC(=O)[C@H](Cc2ccccc2)NC(=O)[C@H]([C@@H](C)O)NC(=O)[C@H](C)NC(=O)[C@@H](CCCNC(N)=O)NC(=O)[C@H](C)NC(=O)[C@H]([C@@H](C)O)NC(=O)[C@H](CCC(=O)O)NC(=O)CNC(=O)[C@H](CCCNC(=N)N)NC(=O)[C@@H](C)NC(=O)[C@@H](N)CSSC[C@@H](C(N)=O)NC(=O)[C@@H](C)NC(=O)[C@H](CCC(N)=O)NC(=O)CNC(=O)[C@H](Cc2c[nH]c3ccccc23)NC(=O)[C@H](Cc2ccc(O)cc2)NC1=O) [RB9 M1]", "values": [{"measurement": "inhibition of cell migration (words)", "setting": "[1]", "value": "partial inhibition"}]}, {"substance": "C(dA)RGETA(dCit)ATFAYWGQ(dA)-NH2 (C[dA]RGETA[dCit]ATFAYWGQ[dA]-NH2; N-terminus assumed; SMILES C[C@H](NC(=O)[C@H](Cc1ccccc1)NC(=O)[C@@H](NC(=O)[C@H](C)NC(=O)[C@@H](CCCNC(N)=O)NC(=O)[C@H](C)NC(=O)[C@@H](NC(=O)[C@H](CCC(=O)O)NC(=O)CNC(=O)[C@H](CCCNC(=N)N)NC(=O)[C@@H](C)NC(=O)[C@@H](N)CS)[C@@H](C)O)[C@@H](C)O)C(=O)N[C@@H](Cc1ccc(O)cc1)C(=O)N[C@@H](Cc1c[nH]c2ccccc12)C(=O)NCC(=O)N[C@@H](CCC(N)=O)C(=O)N[C@H](C)C(N)=O) [RB10 M4]", "values": [{"measurement": "inhibition of cell migration (words)", "setting": "[1]", "value": "partial inhibition"}]}, {"substance": "CARGETA(dCit)AT(dF)AYWGQ(dA)-NH2 (CARGETA[dCit]AT[dF]AYWGQ[dA]-NH2; N-terminus assumed; SMILES C[C@H](NC(=O)[C@@H](NC(=O)[C@H](CCC(=O)O)NC(=O)CNC(=O)[C@H](CCCNC(=N)N)NC(=O)[C@H](C)NC(=O)[C@@H](N)CS)[C@@H](C)O)C(=O)N[C@H](CCCNC(N)=O)C(=O)N[C@@H](C)C(=O)N[C@H](C(=O)N[C@H](Cc1ccccc1)C(=O)N[C@@H](C)C(=O)N[C@@H](Cc1ccc(O)cc1)C(=O)N[C@@H](Cc1c[nH]c2ccccc12)C(=O)NCC(=O)N[C@@H](CCC(N)=O)C(=O)N[C@H](C)C(N)=O)[C@@H](C)O) [RB10 M1]", "values": [{"measurement": "inhibition of cell migration (words)", "setting": "[1]", "value": "partial inhibition"}]}, {"substance": "CAAGETARATFAYWGQG-NH2 [RB10 A3]", "values": [{"measurement": "trypsin/EDTA-resistant cell adherence", "setting": "[4]", "value": "normally detached"}, {"measurement": "inhibition of cell migration (words)", "setting": "[1]", "value": "partial inhibition"}]}, {"substance": "CARGETA(dCit)ATFAYWGQGC-NH2 [RB9 M4]", "values": [{"measurement": "inhibition of cell migration (words)", "setting": "[1]", "value": "partial inhibition"}]}, {"substance": "YTSSLYS-NH2 [RB13]", "values": [{"measurement": "antitumor activity", "setting": "[2]", "value": "no antitumor activity"}, {"measurement": "protection against lung colonization (lung nodules)", "setting": "[3]", "value": "unprotective"}]}, {"substance": "SASQDIGNFLN-NH2 [RB12]", "values": [{"measurement": "antitumor activity", "setting": "[2]", "value": "no antitumor activity"}, {"measurement": "protection against lung colonization (lung nodules)", "setting": "[3]", "value": "unprotective"}]}, {"substance": "C(dA)RGETARATFAYC-NH2 (C[dA]RGETARATFAYC-NH2; disulfide 1-14; N-terminus assumed; SMILES C[C@@H]1NC(=O)[C@H](CCCNC(=N)N)NC(=O)[C@H](C)NC(=O)[C@H]([C@@H](C)O)NC(=O)[C@H](CCC(=O)O)NC(=O)CNC(=O)[C@H](CCCNC(=N)N)NC(=O)[C@@H](C)NC(=O)[C@@H](N)CSSC[C@@H](C(N)=O)NC(=O)[C@H](Cc2ccc(O)cc2)NC(=O)[C@H](C)NC(=O)[C@H](Cc2ccccc2)NC(=O)[C@H]([C@@H](C)O)NC1=O) [RB9 M3]", "values": [{"measurement": "inhibition of cell migration (words)", "setting": "[1]", "value": "partial inhibition"}]}, {"substance": "CARGETAAATFAYWGQG-NH2 [RB10 A8]", "values": [{"measurement": "trypsin/EDTA-resistant cell adherence", "setting": "[4]", "value": "normally detached"}, {"measurement": "inhibition of cell migration (words)", "setting": "[1]", "value": "partial inhibition"}]}, {"substance": "AARGETARATFAYWGQG-NH2 [RB10 A1]", "values": [{"measurement": "trypsin/EDTA-resistant cell adherence", "setting": "[4]", "value": "normally detached"}, {"measurement": "inhibition of cell migration (words)", "setting": "[1]", "value": "non-inhibition"}]}, {"substance": "QQYSKLPLT-NH2 [RB14]", "values": [{"measurement": "antitumor activity", "setting": "[2]", "value": "no antitumor activity"}, {"measurement": "protection against lung colonization (lung nodules)", "setting": "[3]", "value": "unprotective"}]}, {"substance": "YWCRAAFTTEAGRACQGG-NH2 (disulfide 3-15; N-terminus assumed; SMILES C[C@@H]1NC(=O)[C@H](C)NC(=O)[C@H](CCCNC(=N)N)NC(=O)[C@@H](NC(=O)[C@H](Cc2c[nH]c3ccccc23)NC(=O)[C@@H](N)Cc2ccc(O)cc2)CSSC[C@@H](C(=O)N[C@@H](CCC(N)=O)C(=O)NCC(=O)NCC(N)=O)NC(=O)[C@H](C)NC(=O)[C@H](CCCNC(=N)N)NC(=O)CNC(=O)[C@H](C)NC(=O)[C@H](CCC(=O)O)NC(=O)[C@H]([C@@H](C)O)NC(=O)[C@H]([C@@H](C)O)NC(=O)[C@H](Cc2ccccc2)NC1=O) [RB9 Sc2]", "values": [{"measurement": "inhibition of cell migration (words)", "setting": "[1]", "value": "partial inhibition"}]}, {"substance": "CARGEAARATFAYWGQG-NH2 [RB10 A6]", "values": [{"measurement": "trypsin/EDTA-resistant cell adherence", "setting": "[4]", "value": "high trypsin/EDTA-resistant cell adherence"}, {"measurement": "inhibition of cell migration (words)", "setting": "[1]", "value": "partial inhibition"}]}, {"substance": "CARGATARATFAYWGQG-NH2 [RB10 A5]", "values": [{"measurement": "trypsin/EDTA-resistant cell adherence", "setting": "[4]", "value": "normally detached"}]}, {"substance": "CARAETARATFAYWGQG-NH2 [RB10 A4]", "values": [{"measurement": "trypsin/EDTA-resistant cell adherence", "setting": "[4]", "value": "high trypsin/EDTA-resistant cell adherence"}, {"measurement": "inhibition of cell migration (words)", "setting": "[1]", "value": "partial inhibition"}]}, {"substance": "CFIARAGWYATEARGGQC-NH2 [RB9 Sc3]", "values": [{"measurement": "inhibition of cell migration (words)", "setting": "[1]", "value": "partial inhibition"}]}, {"substance": "C(dA)RGETARATFAYWGQGC-NH2 [RB9 M5]", "values": [{"measurement": "inhibition of cell migration (words)", "setting": "[1]", "value": "partial inhibition"}]}, {"substance": "C(dA)RGETA(dCit)AT(dF)AYWGQ(dA)C-NH2 (C[dA]RGETA[dCit]AT[dF]AYWGQ[dA]C-NH2; disulfide 1-18; N-terminus assumed; SMILES C[C@@H]1NC(=O)[C@H]([C@@H](C)O)NC(=O)[C@H](CCC(=O)O)NC(=O)CNC(=O)[C@H](CCCNC(=N)N)NC(=O)[C@@H](C)NC(=O)[C@@H](N)CSSC[C@@H](C(N)=O)NC(=O)[C@@H](C)NC(=O)[C@H](CCC(N)=O)NC(=O)CNC(=O)[C@H](Cc2c[nH]c3ccccc23)NC(=O)[C@H](Cc2ccc(O)cc2)NC(=O)[C@H](C)NC(=O)[C@@H](Cc2ccccc2)NC(=O)[C@H]([C@@H](C)O)NC(=O)[C@H](C)NC(=O)[C@@H](CCCNC(N)=O)NC1=O) [RB9 M2]", "values": [{"measurement": "inhibition of cell migration (words)", "setting": "[1]", "value": "partial inhibition"}]}]}
